Source: US5707976A, “Substituted propane-2-OL derivatives” (Richter Gedeon Vegyeszeti Gyar Rt., priority 1993, dated 1998)
≈ marks a conversion by molar mass, not a printed value. Like-named read-outs stand apart in the source and are kept apart here.

Tests used:
[1] = system: Candida albicans; assay: Densitometric measurement of the propagation of yeast fungi (BIOSCREEN C), minimal inhibitory concentration; assay type: cell-based; details: for MIC: Candida albicans
Protocol: Densitometric measurement of the propagation of yeast fungi
A microbiological analyzer called BIOSCREEN C (LAB-SYSTEMS, Helsinki, Finland) was used to the measurements. From the test compounds first a stock solution of a concentration of 50 mg/ml, then in 15 steps a bisecting dilution series was prepared with dimethyl sulfoxide. From every dilution step 10 μl each was introduced into the cells of the analysator. Then 390 μl of an aqueous nutrient solution was piperred into the cells. In the mixtures obtained the cells of the yeasts, e.g. Candida albicans, cans, were suspended in such an amount that the optical density of the suspension obtained be about 0.1. Young cultures, shaken at 30° C. for about 12 hours, were used in the preparation of the suspensions. The composition of the aqueous nutrient solution was as follows: 1% by weight of glucose, 0.5% by weight of yeast extract (a product of the firm OXOID Ltd, Great Britain, under the catalogue No. L21) and 0.5% by weight of nutrient broth (a product of the firm OXOID Ltd, Great Britain, under the catalogue No. CM 1/2). The concentration of the compounds to be tested in the cells corresponded to 1250, 625, 312, 156, 78, 39, 19, 9, 4, 2, 1, 0.6, 0.3, 0.15 and 0.07 μg/ml, resp. The densitometric measurement of the cultures was carried out during an incubation at 37° C. for 30 hours. The change in the turbidity of the culture, which can be followed through optical measurement, is proportional to the propagation of the yeast fungi.
As the minimal inhibitory concentration (MIC) of this test that minimal concentration of the tested compound was determined which was able to prevent totally the propagation of the fungus.

[2] = system: other Candida species and other pathogenic fungi; assay: in vitro tests, full inhibition of other Candida species and other pathogenic fungi; assay type: cell-based; details: read-out: dose of full inhibition
Excerpt: Mainly this resistant species causes the disease called "candidiasis" which is quite wide-spread and very difficult to influence.

[3] = 30 h, read-out: MIC values of the individual tests

C[Si](C)(C)OC(Cn1cncn1)(Cn1cncn1)c1ccc(F)cc1F [Example 1, 2-(2,4-Difluorophenyl)-1,3-bis(1,2,4-triazol-1-yl)-2-(trimethylsilyloxy)propane]
MIC [1, 3]: 150 µg/mL (≈ 396 µM) | effectiveness against Candida albicans compared with the active ingredient of fluconazole ([1]; factor missing in the printed text): times more effective

C[Si](C)(C)OC(Cn1ccnc1)(Cn1cncn1)c1ccc(F)cc1F (stereo not shown) [Example 3, 1-(Imidazol-1-yl)-2-(2,4-difluorophenyl)-3-(1,2,4-triazol-1-yl)-2-(trimethylsilyloxy) propane]
MIC [1, 3]: 150 µg/mL (≈ 397 µM)

C[Si](C)(C)OC(CCl)(Cn1cncn1)c1ccc(F)cc1F (stereo not shown) [Example 5, 1-Chloro-2-(2,4-difluorophenyl)-3-(1,2,4-triazol-1-yl)-2-(trimethylsilyloxy) propane]
MIC [1, 3]: 9 µg/mL (≈ 26 µM)

CC(Cn1cncn1)(O[Si](C)(C)C)c1ccc(F)cc1F (stereo not shown) [Example 6, 2-(2,4-Difluorophenyl)-3-(1,2,4-triazol-1-yl)-2-(trimethylsilyloxy)propane]
MIC [1, 3]: 150 µg/mL (≈ 482 µM)

C[Si](C)(C)OC(CCl)(Cn1ccnc1)c1ccc(F)cc1F (stereo not shown) [Example 8, 1-Chloro-2-(2,4-difluorophenyl)-3-(imidazol-1-yl)-2-(trimethylsilyloxy)propane]
MIC [1, 3]: 19 µg/mL (≈ 55.1 µM)

OC(Cn1cncn1)(Cn1cncn1)c1ccc(F)cc1F [fluconazole, 2-(2,4-difluorophenyl)-1,3-bis(1,2,4-triazol-1-yl)propane-2-ol, reference compound]
effect against Candida albicans (in words) [1]: relatively weak effect | MIC [1, 3]: 2500 µg/mL (≈ 8160 µM) | MIC ([1]; in vitro, read-out: dose of full inhibition): 2500 µg/mL (≈ 8160 µM) | MIC [2]: 0.1 to 10 µg/mL (≈ 0.327 to 32.7 µM)
